The target in assay [1] is human GLP-1R (Homo sapiens (Human), UniProt P43220, L260F). Description: CHO GLP-1R Clone C6—Assay 2: HTRF cAMP cell-based functional agonist assay (low GLP-1R density). To be noted: for EC50: CHO GLP-1R Clone C6, cAMP HTRF, geometric mean; for Emax: CHO GLP-1R Clone C6, relative to saturating concentration of full agonist GLP-1 (1 μM), arithmetic mean, read-out: Assay 2 Emax (%).

Assay [2] deals with human GLP-1R (Homo sapiens, UniProt P43220, G168S). Description: CHO GLP-1R Clone H6—Assay 1: HTRF cAMP cell-based functional agonist assay (high GLP-1R density). To be noted: for EC50: read-out: Assay 1 EC50, CHO GLP-1R Clone H6, cAMP HTRF, geometric mean; for Emax: read-out: Assay 1 Emax (%), CHO GLP-1R Clone H6, relative to saturating concentration of full agonist GLP-1 (1 μM), arithmetic mean.
Sequence of human GLP-1R (Homo sapiens, UniProt P43220, G168S) (P43220 24-463 G168S limits assumed): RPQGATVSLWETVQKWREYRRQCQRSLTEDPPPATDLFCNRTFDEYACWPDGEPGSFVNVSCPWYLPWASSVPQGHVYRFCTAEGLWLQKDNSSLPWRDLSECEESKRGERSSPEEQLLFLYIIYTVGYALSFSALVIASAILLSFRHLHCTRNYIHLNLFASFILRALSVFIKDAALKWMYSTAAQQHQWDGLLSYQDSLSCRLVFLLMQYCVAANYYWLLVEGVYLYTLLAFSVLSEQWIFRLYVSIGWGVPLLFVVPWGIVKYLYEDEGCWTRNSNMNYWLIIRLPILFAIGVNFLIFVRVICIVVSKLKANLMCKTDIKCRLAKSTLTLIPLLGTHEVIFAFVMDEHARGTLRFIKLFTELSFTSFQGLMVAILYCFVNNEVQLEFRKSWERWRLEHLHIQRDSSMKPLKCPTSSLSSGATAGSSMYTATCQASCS

SMILES strings stand for the structures. Some results are limits rather than exact numbers.

Sequence of human GLP-1R (Homo sapiens (Human), UniProt P43220, L260F) (P43220 24-463 L260F): as the sequence (P43220 24-463 G168S limits assumed) above, with S145G, L237F counted along it

On to `Cn1c(CN2CCC(c3cccc(OCc4ccc(C#N)cc4)n3)CC2)nc2ccc(C(=O)O)cc21` [Example 9A-15, 2-[(4-{6-[(4-cyanobenzyl)oxy]pyridin-2-yl}piperidin-1-yl)methyl]-1-methyl-1H-benzimidazole-6-carboxylic acid], for which, at human GLP-1R [1], the midpoint of the response, the EC50, lay at 3500 nM and the maximal effect (Emax) is 90%. For the same compound, at human GLP-1R [2], the concentration for a half-maximal effect (EC50) is 180 nM and the maximal effect (Emax) was 78%.

With `O=C(O)c1ccc2nc(CN3CCC(c4cccc(OCc5ccc(Cl)cc5F)n4)CC3)n(Cc3cnco3)c2c1` [Example 10A-01, 2-[(4-{6-[(4-Chloro-2-fluorobenzyl)oxy]pyridin-2-yl}piperidin-1-yl)methyl]-1-(1,3-oxazol-5-ylmethyl)-1H-benzimidazole-6-carboxylic acid], on human GLP-1R [1], the 50% effective concentration (EC50) was determined as 43 nM and the Emax stood at 84%. Moreover, on human GLP-1R [2], the EC50 came to 3.2 nM and the maximum response (Emax) is 77%.

Regarding `CCn1cncc1Cn1c(CN2CCC(c3cccc(OCc4ccc(Cl)cc4F)n3)CC2)nc2ccc(C(=O)O)cc21` [Example 10A-02, 2-[(4-{6-[(4-chloro-2-fluorobenzyl)oxy]pyridin-2-yl}piperidin-1-yl)methyl]-1-[(1-ethyl-1H-imidazol-5-yl)methyl]-1H-benzimidazole-6-carboxylic acid], on human GLP-1R [1], the concentration giving a half-maximal response (EC50) came to 2.2 nM and the Emax was found to be 97%. Besides, at human GLP-1R [2], the EC50 was determined as 0.34 nM and the maximum response (Emax) was determined as 89%.

With `O=C(O)c1ccc2nc(CN3CCC(c4cccc(OCc5ccc(F)cc5F)n4)CC3)n(C[C@@H]3CCO3)c2c1` [Example 10A-05, 2-[(4-{6-[(2,4-difluorobenzyl)oxy]pyridin-2-yl}piperidin-1-yl)methyl]-1-[(2S)-oxetan-2-ylmethyl]-1H-benzimidazole-6-carboxylic acid], the EC50 at human GLP-1R [1] worked out at 38 nM; at human GLP-1R [2] it was 2.4 nM. For the same compound, the Emax was determined as 83% on human GLP-1R [1] and 71% at human GLP-1R [2].

Regarding `CCn1cnnc1Cn1c(CN2CCC(c3cccc(OCc4ccc(Cl)cc4F)n3)CC2)nc2ccc(C(=O)O)cc21` [Example 10A-07], the concentration for a half-maximal effect (EC50) on human GLP-1R [1] came out at 68 nM; at human GLP-1R [2], 2.8 nM. Also, the Emax at human GLP-1R [1] was 81%; on human GLP-1R [2] it was 82%.

Regarding `O=C(O)c1ccc2nc(CN3CCN(c4cccc(OCc5ccc(Cl)cc5F)n4)CC3)n(C[C@@H]3CCO3)c2c1` [Example 10A-08, 2-[(4-{6-[(4-chloro-2-fluorobenzyl)oxy]pyridin-2-yl}piperazin-1-yl)methyl]-1-[(2S)-oxetan-2-ylmethyl]-1H-benzimidazole-6-carboxylic acid], on human GLP-1R [1], the EC50 came out at 9.2 nM and the Emax worked out at 94%. Moreover, at human GLP-1R [2], the concentration for a half-maximal effect (EC50) was 0.55 nM and the Emax was 77%.

As to `C[C@H]1CN(c2cccc(OCc3ccc(C#N)cc3F)n2)CCN1Cc1nc2ccc(C(=O)O)nc2n1C[C@@H]1CCO1` [Example 10A-09, 2-{[(2S)-4-{6-[(4-cyano-2-fluorobenzyl)oxy]pyridin-2-yl}-2-methylpiperazin-1-yl]methyl}-3-[(2S)-oxetan-2-ylmethyl]-3H-imidazo[4,5-b]pyridine-5-carboxylic acid], at human GLP-1R [1], the half-maximal effective concentration (EC50) is 10 nM and the Emax amounted to 120%. On human GLP-1R [2], the EC50 was 0.99 nM and the Emax was found to be 95%.

On to `C[C@H]1CN(c2cccc(OCc3ccc(Cl)cc3F)n2)CCN1Cc1nc2ccc(C(=O)O)nc2n1C[C@@H]1CCO1` [Example 10A-10, 2-{[(2S)-4-{6-[(4-chloro-2-fluorobenzyl)oxy]pyridin-2-yl}-2-methylpiperazin-1-yl]methyl}-3-[(2S)-oxetan-2-ylmethyl]-3H-imidazo[4,5-b]pyridine-5-carboxylic acid], for which, at human GLP-1R [1], the EC50 amounted to 4.1 nM and the maximal effect (Emax) is 100%. Moreover, on human GLP-1R [2], the EC50 came to 0.3 nM and the maximum response (Emax) is 84%.

For the compound `O=C(O)c1ccc2nc(CN3CCC(c4cccc(OCc5ccc(Cl)cc5F)n4)CC3)n(CCN3CCCC3=O)c2c1` [Example 10A-12], at human GLP-1R [1], the midpoint of the response, the EC50, lay at 4400 nM and the Emax is 110%. Moreover, on human GLP-1R [2], the EC50 came to 110 nM and the maximal effect (Emax) is 68%.

With `C[C@H]1CN(c2cccc(OCc3ccc(Cl)cc3F)n2)CCN1Cc1nc2ccc(C(=O)O)cc2n1Cc1cocn1` [Example 10A-13], at human GLP-1R [1], the EC50 stood at 170 nM and the Emax was determined as 75%. Further, on human GLP-1R [2], the EC50 is 4.1 nM and the maximum response (Emax) was 67%.

As for `C[C@H]1CN(c2cccc(OCc3ccc(C#N)cc3F)n2)CCN1Cc1nc2ccc(C(=O)O)cc2n1Cc1cocn1` [Example 10A-14], at human GLP-1R [1], the EC50 was 220 nM and the Emax was 93%. Also, at human GLP-1R [2], the EC50 was 8.1 nM and the Emax was 74%.

In the case of `C[C@H]1CN(c2cccc(OCc3ccc(C#N)cc3F)n2)CCN1Cc1nc2ccc(C(=O)O)cc2n1Cc1ncco1` [Example 10A-15, 2-{[(2S)-4-{6-[(4-cyano-2-fluorobenzyl)oxy]pyridin-2-yl}-2-methylpiperazin-1-yl]methyl}-1-(1,3-oxazol-2-ylmethyl)-1H-benzimidazole-6-carboxylic acid], at human GLP-1R [1], a half-maximal effect (EC50) was put at 27 nM and the maximum response (Emax) came out at 87%. On human GLP-1R [2], the EC50 amounted to 1.3 nM and the Emax stood at 72%.

For `C[C@H]1CN(c2cccc(OCc3ccc(Cl)cc3F)n2)CCN1Cc1nc2ccc(C(=O)O)cc2n1Cc1cnco1` [Example 10A-16, 2-{[(2S)-4-{6-[(4-chloro-2-fluorobenzyl)oxy]pyridin-2-yl}-2-methylpiperazin-1-yl]methyl}-1-(1,3-oxazol-5-ylmethyl)-1H-benzimidazole-6-carboxylic acid], on human GLP-1R [1], the EC50 was determined as 45 nM and the maximum response (Emax) is 83%. Also, at human GLP-1R [2], the 50% effective concentration (EC50) was 1.7 nM and the Emax is 67%.

Consider `C[C@H]1CN(c2cccc(OCc3ccc(C#N)cc3F)n2)CCN1Cc1nc2ccc(C(=O)O)cc2n1Cc1cnco1` [Example 10A-17], for which, at human GLP-1R [1], the concentration giving a half-maximal response (EC50) came out at 59 nM and the maximum response (Emax) worked out at 85%. Further, at human GLP-1R [2], the concentration giving a half-maximal response (EC50) came out at 1.8 nM and the Emax worked out at 77%.

Regarding `C[C@H]1CN(c2cccc(OCc3ccc(Cl)cc3F)n2)CCN1Cc1nc2ccc(C(=O)O)cc2n1Cc1ncco1` [Example 10A-18, 2-{[(2S)-4-{6-[(4-chloro-2-fluorobenzyl)oxy]pyridin-2-yl}-2-methylpiperazin-1-yl]methyl}-1-(1,3-oxazol-2-ylmethyl)-1H-benzimidazole-6-carboxylic acid], at human GLP-1R [1], a half-maximal response (EC50) required 33 nM and the maximal response (Emax) amounted to 78%. Besides, at human GLP-1R [2], the EC50 amounted to 1.6 nM and the maximal response (Emax) is 78%.

For the compound `Cc1nnc(Cn2c(CN3CCC(c4cccc(OCc5ccc(Cl)cc5F)n4)CC3)nc3ccc(C(=O)O)cc32)n1C` [Example 10A-20], the concentration giving a half-maximal response (EC50) at human GLP-1R [1] is greater than 20000 nM; on human GLP-1R [2] it was greater than 15000 nM. Besides, the maximal response (Emax) on human GLP-1R [2] amounted to 98%.

With `CCn1cnnc1Cn1c(CN2CCN(c3cccc(OCc4ccc(Cl)cc4F)n3)C[C@@H]2C)nc2ccc(C(=O)O)cc21` [Example 10A-21], at human GLP-1R [1], the 50% effective concentration (EC50) was found to be 400 nM and the Emax came to 100%. On human GLP-1R [2], the EC50 is 18 nM and the Emax amounted to 88%.

Turning to `C[C@H]1CN(c2cccc(OCc3ccc(Cl)cc3F)n2)CCN1Cc1nc2ccc(C(=O)O)cc2n1Cc1cnnn1C` [Example 10A-22], at human GLP-1R [1], the EC50 came to 100 nM and the Emax was determined as 79%. In addition, at human GLP-1R [2], the EC50 was found to be 5.7 nM and the maximal effect (Emax) stood at 67%.

Source of the values: patent US10208019B2, “GLP-1 receptor agonists and uses thereof” (Pfizer Inc., priority 2016, dated 2019).
